Our source for the Ki and EC50 values is patent US8754116B2, “Macrocyclic inhibitors of hepatitis C virus” (Janssen R&D Ireland, priority 2005, dated 2014).

The target in one assay is HCV NS3/4A protease (Hepatitis C virus genotype 1a, UniProt P27958). The assay is described as follows: Inhibition assay (enzymatic assay, depsipeptide substrate hydrolysis). Also: full-length NS3 protease 1 nM, 25 µM NS4A cofactor, 0.5 µM substrate. The format is biochemical. As for the experimental part: [Landro, 1997 # Biochem 36 9340-9348]. […] The solutions were stored at −20° C. between measurements.
[Liu, 1999 Analytical Biochemistry 267 331-335].

Assay [1] concerns HCV replicons (NS3-NS5B regions of HCV type 1b) in Huh-7 luc/neo (Huh-Luc) cells. The assay is described as follows: Replicon assay (HCV RNA replication, luciferase read-out). The format is cell-based. To be noted: Hepatitis C virus, Huh-7, 72 h, incubation of three days, luciferase activity. The procedure: The in vitro antiviral activity against HCV of the compounds of formula (I) was tested in a cellular HCV replicon system based on Lohmann et al. (1999) Science 285:110-113, with the further modifications described by Krieger et al. (2001) Journal of Virology 75: 4614-4624, which is further exemplified in the examples section. This model, while not a complete infection model for HCV, is widely accepted as the most robust and efficient model of autonomous HCV RNA replication currently available. […] It will be appreciated that it is important to distinguish between compounds that specifically interfere with HCV functions from those that exert cytotoxic or cytostatic effects in the HCV replicon model, and as a consequence cause a decrease in HCV RNA or linked reporter enzyme concentration. […]
The replicon cells were plated in 384 well plates in the presence of the test and control compounds which were added in various concentrations. Following an incubation of three days, HCV replication was measured by assaying luciferase activity (using standard luciferase assay substrates and reagents and a Perkin Elmer ViewLux™ ultraHTS microplate imager). […] The inhibitory activity of the compound on luciferase activity was monitored on the Huh-Luc cells, enabling a dose-response curve for each test compound.

Each structure is given as a SMILES string. Where only a bound is given, the exact number is not on record here.

HCV NS3/4A protease, sequence (P27958 1027-1657): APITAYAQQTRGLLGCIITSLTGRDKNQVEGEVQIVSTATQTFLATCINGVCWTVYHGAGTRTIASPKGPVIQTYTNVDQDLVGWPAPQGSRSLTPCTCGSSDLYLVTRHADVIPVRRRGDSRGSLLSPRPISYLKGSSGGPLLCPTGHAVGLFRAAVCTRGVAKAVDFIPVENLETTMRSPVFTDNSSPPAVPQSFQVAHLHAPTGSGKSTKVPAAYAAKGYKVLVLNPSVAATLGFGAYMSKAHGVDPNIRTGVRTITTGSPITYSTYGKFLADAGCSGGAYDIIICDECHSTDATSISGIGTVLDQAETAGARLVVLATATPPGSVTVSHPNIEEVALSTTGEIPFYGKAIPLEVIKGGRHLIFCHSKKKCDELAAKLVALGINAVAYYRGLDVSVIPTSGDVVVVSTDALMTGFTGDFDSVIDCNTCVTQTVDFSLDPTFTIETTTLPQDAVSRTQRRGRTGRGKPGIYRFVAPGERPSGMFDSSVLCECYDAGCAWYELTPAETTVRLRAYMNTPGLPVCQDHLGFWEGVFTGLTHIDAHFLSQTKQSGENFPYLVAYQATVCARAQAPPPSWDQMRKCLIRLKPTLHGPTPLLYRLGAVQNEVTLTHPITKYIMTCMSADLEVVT

With `CN1CCCC/C=C\[C@@H]2C[C@@]2(C(=O)O)NC(=O)[C@@H]2C[C@@H](n3nnc(-c4ccccc4)n3)C[C@H]2C1=O` [Compound 9, 17-(5-phenyltetrazol-2-yl)-13-methyl-2,14-dioxo-3,13-diazatricyclo[13.3.0.0^4,6]octadec-7-ene-4-carboxylic acid], the Ki at HCV NS3/4A protease was > 1000 nM. The EC50 in assay [1] was > 10 µM.
In the case of `CN1CCCC/C=C\[C@@H]2C[C@@]2(C(=O)NS(=O)(=O)C2CC2)NC(=O)[C@@H]2C[C@@H](n3nnc(-c4ccccc4)n3)C[C@H]2C1=O` [Compound 10, N-[17-(5-phenyltetrazol-2-yl)-13-methyl-2,14-dioxo-3,13-diazatricyclo[13.3.0.0^4,6]octadec-7-ene-4-carbonyl](cyclopropyl)sulfonamide], the Ki on HCV NS3/4A protease stood at 30 nM. For the same compound, the EC50 in assay [1] was 3.43 µM.
